The test system of the first data set is AIF1. The data set is described as follows: siRNA dose response, AIF1 mRNA knockdown, bDNA Assay. Format: cell-based, human. Conditions: THP-1, 24 hr. Here is the method:
(§1) Dose response curves for siRNAs were generated in vitro using a variety of cell lines according to Table 4.
(§2) Briefly, cells were seeded in 96-well plates and reverse transfected with siRNA, Lipofectamine® 2000 (0.5 uL/well; ThermoFisher), and, in some cases, a reporter plasmid (50 ng/well). The reporter plasmid (psiCHECK™-2, Promega) encoded both firefly luciferase and the gene of interest fused to renilla luciferase; silencing of the gene of interest results in proportional silencing of renilla luciferase but leaves firefly luciferase unaffected as an internal control.
(§3) After 24 hr incubation at 37° C., mRNA knockdown was measured using an endpoint assay. For targets without a reporter plasmid, a branched DNA (bDNA) assay was performed according to the manufacturer's instructions (QuantiGene® Singleplex Gene Expression Assay, ThermoFisher) to measure both the target gene and GAPDH (housekeeping gene) mRNA. Data are plotted as siRNA concentration (nM) vs. remaining mRNA (ratio of target gene to GAPDH, normalized to mock siRNA-transfected cells). For targets with a reporter plasmid, a Dual-Glo® Luciferase Assay was performed according to the manufacturer's instructions (Promega) to measure firefly and renilla luciferase expression. Data are plotted as siRNA concentration (nM) vs. remaining mRNA (ratio of renilla to firefly luminescence, normalized to mock siRNA-transfected cells).
(§4) For all dose response curves, a 4-parameter logistic model was applied to determine the IC50 of each siRNA sequence (Table 5 and FIG. 2). Data shown in Table 5 and FIG. 2 represent the mean of quadruplicates, +/−standard deviation.
In general, IC50 refers to the concentration at which inhibition is half-maximal. Turning to “XD-09661: siRNA targeting AIF1 (sense 5'-uaAuGGAAAuGGcgAuAuudTsdT-3'; antisense 5'-AAuAUCGCcAUUUCcAUuAdTsdT-3'; as printed in the source, key not given here)”, half-maximal inhibition (IC50) required 0.045 nM.
Same read-out and setting: then “XD-09662: siRNA targeting AIF1 (sense 5'-uaucAuGucccuGaAAcGAdTsdT-3'; antisense 5'-UCGUUUcAGGGAcAUGAuAdTsdT-3'; as printed in the source, key not given here)”, with 0.12 nM; and “XD-09663: siRNA targeting AIF1 (sense 5'-gaAAcGAAuGcuGgAGAAAdTsdT-3'; antisense 5'-UUUCUCcAGcAUUCGUUUCdTsdT-3'; as printed in the source, key not given here)”, with 0.263 nM; and “XD-09664: siRNA targeting AIF1 (sense 5'-agAcucAccuAGAgcuAAAdTsdT-3'; antisense 5'-UUuAGCUCuAGGUGAGUCUdTsdT-3'; as printed in the source, key not given here)”, with 0.433 nM.
The same measure, in the same setting: then “XD-09665: siRNA targeting AIF1 (sense 5'-cucAccuAGAGcuaAAGAAdTsdT-3'; antisense 5'-UUCUUuAGCUCuAGGUGAGdTsdT-3'; as printed in the source, key not given here)”, with 0.349 nM; and “XD-09666: siRNA targeting AIF1 (sense 5'-ucAccuAGAGcuAaAGAAAdTsdT-3'; antisense 5'-UUUCUUuAGCUCuAGGUGAdTsdT-3'; as printed in the source, key not given here)”, with 0.105 nM.
On the same count and under the same terms, under “XD-09667: siRNA targeting AIF1 (sense 5'-accuAGAGcuAAAgAAAuudTsdT-3'; antisense 5'-AAUUUCUUuAGCUCuAGGUdTsdT-3'; as printed in the source, key not given here)” stands 0.042 nM; under “XD-09668: siRNA targeting AIF1 (sense 5'-ccuAGAGcuAAAGaAAuuAdTsdT-3'; antisense 5'-uAAUUUCUUuAGCUCuAGGdTsdT-3'; as printed in the source, key not given here)”, 0.267 nM; under “XD-09669: siRNA targeting AIF1 (sense 5'-ccGGGGAGAcGuucAGcuAdTsdT-3'; antisense 5'-uAGCUGAACGUCUCCCCGGdTsdT-3'; as printed in the source, key not given here)”, 1.23 nM.

The next data set relates to VSIG4. The data set is described as follows: siRNA dose response, VSIG4 mRNA knockdown, Dual-Glo Luciferase Assay. The data set is classed as cell-based, human. The settings on record: Hepa1-6 + reporter plasmid, 24 hr. As to the method:
as §1, §2, §3, §4
Consider “XD-09170: siRNA targeting VSIG4 (sense 5'-aaGGcuAcAcccAaGucuudTsdT-3'; antisense 5'-AAGACUUGGGUGuAGCCUUdTsdT-3'; RNA with 2'-O-methyl and phosphorothioate modifications, case key not given here, as printed in the source, key not given here)”, for which the IC50 turned out to be 0.024 nM.
On the same count and under the same terms, under “XD-09171: siRNA targeting VSIG4 (sense 5'-cuuucuAcGuGAcucuucudTsdT-3'; antisense 5'-AGAAGAGUcACGuAGAAAGdTsdT-3'; RNA with 2'-O-methyl and phosphorothioate modifications, case key not given here, as printed in the source, key not given here)” stands 0.023 nM; under “XD-09172: siRNA targeting VSIG4 (sense 5'-gcAAccAAGucGugAGAGAdTsdT-3'; antisense 5'-UCUCUcACGACUUGGUUGCdTsdT-3'; RNA with 2'-O-methyl and phosphorothioate modifications, case key not given here, as printed in the source, key not given here)”, < 0.005 nM; under “XD-09173: siRNA targeting VSIG4 (sense 5'-cguGAGAGAuAAGauuAcudTsdT-3'; antisense 5'-AGuAAUCUuAUCUCUcACGdTsdT-3'; RNA with 2'-O-methyl and phosphorothioate modifications, case key not given here, as printed in the source, key not given here)”, < 0.005 nM.
On the same count and under the same terms, then “XD-09174: siRNA targeting VSIG4 (sense 5'-aacAAGAGcAuGucuAcGAdTsdT-3'; antisense 5'-UCGuAGAcAUGCUCUUGUUdTsdT-3'; RNA with 2'-O-methyl and phosphorothioate modifications, case key not given here, as printed in the source, key not given here)”, with 0.036 nM; and “XD-09176: siRNA targeting VSIG4 (sense 5'-cacuAGGAcuuGGucAucAdTsdT-3'; antisense 5'-AGAUGACcAAGUCCuAGUGdTsdT-3'; RNA with 2'-O-methyl and phosphorothioate modifications, case key not given here, as printed in the source, key not given here)”, with 0.031 nM; and “XD-09177: siRNA targeting VSIG4 (sense 5'-acuAGGAcuuGGucAucAudTsdT-3'; antisense 5'-AUGAUGACcAAGUCCuAGUdTsdT-3'; RNA with 2'-O-methyl and phosphorothioate modifications, case key not given here, as printed in the source, key not given here)”, with 0.007 nM.
The same measure, in the same setting: under “XD-09178: siRNA targeting VSIG4 (sense 5'-gucAucAuGccuAcAGAcAdTsdT-3'; antisense 5'-UGUCUGuAGGcAUGAUGACdTsdT-3'; RNA with 2'-O-methyl and phosphorothioate modifications, case key not given here, as printed in the source, key not given here)” stands 0.06 nM.
For the substance “XD-09179: siRNA targeting VSIG4 (sense 5'-ggccAGAcAGcuuuuAAuudTsdT-3'; antisense 5'-AAUuAAAAGCUGUCUGGCCdTsdT-3'; RNA with 2'-O-methyl and phosphorothioate modifications, case key not given here, as printed in the source, key not given here)”, the IC50 worked out at 0.006 nM.

Another data set relates to CD74. The data set is described as follows: siRNA dose response, CD74 mRNA knockdown, bDNA Assay. Format: cell-based, human. Conditions: THP-1, 24 hr. Here is the method:
as §1, §2, §3, §4
On to “XD-09224: siRNA targeting CD74 (sense 5'-gcGcGAccuuAucuccAAcdTsdT-3'; antisense 5'-GUUGGAGAuAAGGUCGCGCdTsdT-3'; as printed in the source, key not given here)”, for which the IC50 was found to be 1.98 nM.
Still for that read-out and setting: under “XD-09226: siRNA targeting CD74 (sense 5'-cuGGAcAAAcuGAcAGucAdTsdT-3'; antisense 5'-AGACUGUcAGUUUGUCcAGdTsdT-3'; RNA with 2'-O-methyl and phosphorothioate modifications, case key not given here, as printed in the source, key not given here)” stands 0.143 nM; under “XD-09227: siRNA targeting CD74 (sense 5'-ggAAcuGGAGGAcccGucudTsdT-3'; antisense 5'-AGACGGGUCCUCcAGUUCCdTsdT-3'; RNA with 2'-O-methyl and phosphorothioate modifications, case key not given here, as printed in the source, key not given here)”, 0.583 nM.
Same read-out and setting: then “XD-09230: siRNA targeting CD74 (sense 5'-gacAAAccAAGucgGaacAdTsdT-3'; antisense 5'-UGUUCCGACUUGGUUUGUCdTsdT-3'; as printed in the source, key not given here)”, with 0.196 nM.
Take “XD-09231: siRNA targeting CD74 (sense 5'-aaAccAAGucGGAacAGcAdTsdT-3'; antisense 5'-UGCUGUUCCGACUUGGUUUdTsdT-3'; RNA with 2'-O-methyl and phosphorothioate modifications, case key not given here, as printed in the source, key not given here)”: it took 0.255 nM to reach half-maximal inhibition (IC50).
Substance “XD-09232: siRNA targeting CD74 (sense 5'-agcuAGAcAGAuccccGuudTsdT-3'; antisense 5'-AACGGGGAUCUGUCuAGCUdTsdT-3'; RNA with 2'-O-methyl and phosphorothioate modifications, case key not given here, as printed in the source, key not given here)” gave an IC50 of 0.747 nM.
Still for that read-out and setting: then “XD-09235: siRNA targeting CD74 (sense 5'-ccAAuGuuuuccAcccAuAdTsdT-3'; antisense 5'-uAUGGGUGGAAAAcAUUGGdTsdT-3'; as printed in the source, key not given here)”, with 0.245 nM; and “XD-09237: siRNA targeting CD74 (sense 5'-ccAuAAuccuuucuGccGAdTsdT-3'; antisense 5'-UCGGcAGAAAGGAUuAUGGdTsdT-3'; as printed in the source, key not given here)”, with 1.84 nM.
In turn, “XD-09239: siRNA targeting CD74 (sense 5'-ggccAuGGuucAcauuAGAdTsdT-3'; antisense 5'-UCuAAUGUGAACcAUGGCCdTsdT-3'; as printed in the source, key not given here)” came in with a half-inhibitory concentration (IC50) of 0.07 nM.

Source of the values: patent US20210189342A1, “COMPOSITIONS AND METHODS FOR MODULATING MONOCYTE AND MACROPHAGE INFLAMMATORY PHENOTYPES AND IMMUNOTHERAPY USES THEREOF” (Verseau Therapeutics, Inc., priority 2018, published 2021).
